Measurements as given in ChEMBL document CHEMBL3885881, “DrugMatrix”.

Species: Rattus norvegicus
Assay: DrugMatrix - Regimen: Daily Repeat
Assay type: toxicity, organism-based, Sprague-Dawley
Design: regimen Daily Repeat, gender Male, age 6-8 weeks
Details: in vivo, po, route oral GAVAGE, vehicle .5 % CMC
[1] = 83 mg/kg, 72 h, tissue Blood, dose level High, time 3 day
[2] = 83 mg/kg, 72 h, tissue Plasma, dose level High, time 3 day
[3] = 83 mg/kg, 120 h, tissue Blood, dose level High, time 5 day
[4] = 83 mg/kg, 120 h, tissue Plasma, dose level High, time 5 day
[5] = […], 72 h, tissue Blood, dose 8.3 mg/Kg, dose level Low, time 3 day
[6] = […], 72 h, tissue Plasma, dose 8.3 mg/Kg, dose level Low, time 3 day
[7] = […], 120 h, tissue Blood, dose 8.3 mg/Kg, dose level Low, time 5 day
[8] = […], 120 h, tissue Plasma, dose 8.3 mg/Kg, dose level Low, time 5 day

## SODIUM ORTHOVANAD
[1]
  ABSOLUTE BASOPHIL: 0 CELLS/uL
  ABSOLUTE EOSINOPHIL: 49.33 CELLS/uL
  ABSOLUTE LYMPHOCYTE: 13060 CELLS/uL
  ABSOLUTE MONOCYTE: 206 CELLS/uL
  ABSOLUTE SEGMENTED NEUTROPHIL: 2051.33 CELLS/uL
  BASOPHIL: 0%
  EOSINOPHIL: 0.33%
  ERYTHROCYTE COUNT: 5.99 x10E6/uL
  LEUKOCYTE COUNT: 15.37 x10E3/uL
  LYMPHOCYTE: 85%
  MEAN CORPUSCULAR HEMOGLOBIN: 23.17 pg
  MEAN CORPUSCULAR HEMOGLOBIN CONCENTRATION: 37.8 G/DL
  NEUTROPHIL: 13.33%
  NUCLEATED RED BLOOD CELLS: 0.67 /100WBC
  PLATELET COUNT: 1409 x10E3/uL
[2]
  ALANINE AMINOTRANSFERASE: 51.33 u/L
  ALKALINE PHOSPHATASE: 333.67 u/L
  ASPARTATE AMINOTRANSFERASE: 81.67 u/L
  BLOOD UREA NITROGEN: 13.33 mg/dL
  CARBON DIOXIDE: 16.67 mmol/L
  CHOLESTEROL: 69 mg/dL
  CREATINE PHOSPHOKINASE: 309.33 u/L
  CREATININE: 0.2 mg/dL
  LACTATE DEHYDROGENASE: 147.67 u/L
  LIPASE: 9 u/L
  PHOSPHORUS: 10.33 mg/dL
  POTASSIUM: 6.71 MEQ/L
  SODIUM: 146.67 MEQ/L
  TOTAL BILIRUBIN: 0.27 mg/dL
  TOTAL PROTEIN: 5.43 G/DL
  URIC ACID: 1.8 mg/dL
[3]
  ABSOLUTE BASOPHIL: 0 CELLS/uL
  ABSOLUTE EOSINOPHIL: 42.5 CELLS/uL
  ABSOLUTE LYMPHOCYTE: 9180 CELLS/uL
  ABSOLUTE MONOCYTE: 133 CELLS/uL
  ABSOLUTE SEGMENTED NEUTROPHIL: 1544.5 CELLS/uL
  BASOPHIL: 0%
  EOSINOPHIL: 0.5%
  ERYTHROCYTE COUNT: 6.11 x10E6/uL
  HEMATOCRIT: 36.85%
  HEMOGLOBIN: 13.8 G/DL
  LEUKOCYTE COUNT: 10.9 x10E3/uL
  LYMPHOCYTE: 84%
  MEAN CORPUSCULAR HEMOGLOBIN: 22.65 pg
  MEAN CORPUSCULAR HEMOGLOBIN CONCENTRATION: 37.45 G/DL
  MEAN CORPUSCULAR VOLUME: 60.35 fL
  MONOCYTE: 1%
  NEUTROPHIL: 14.5%
  NUCLEATED RED BLOOD CELLS: 0 /100WBC
  PLATELET COUNT: 1518 x10E3/uL
[4]
  ALANINE AMINOTRANSFERASE: 55 u/L
  ALBUMIN: 4.2 G/DL
  ALKALINE PHOSPHATASE: 268.5 u/L
  ASPARTATE AMINOTRANSFERASE: 90 u/L
  BLOOD UREA NITROGEN: 15.5 mg/dL
  CARBON DIOXIDE: 32.5 mmol/L
  CHOLESTEROL: 82 mg/dL
  CREATINE PHOSPHOKINASE: 294.5 u/L
  CREATININE: 0.22 mg/dL
  LACTATE DEHYDROGENASE: 221.5 u/L
  LIPASE: 14 u/L
  POTASSIUM: 6.81 MEQ/L
  SODIUM: 147.35 MEQ/L
  TOTAL BILIRUBIN: 0.15 mg/dL
  TOTAL PROTEIN: 6 G/DL
  URIC ACID: 1.65 mg/dL
[5]
  ABSOLUTE BASOPHIL: 0 CELLS/uL
  ABSOLUTE EOSINOPHIL: 0 CELLS/uL
  ABSOLUTE MONOCYTE: 61 CELLS/uL
  ABSOLUTE SEGMENTED NEUTROPHIL: 1531 CELLS/uL
  BASOPHIL: 0%
  EOSINOPHIL: 0%
  ERYTHROCYTE COUNT: 5.33 x10E6/uL
  HEMATOCRIT: 34.23%
  HEMOGLOBIN: 13.1 G/DL
  LEUKOCYTE COUNT: 14.33 x10E3/uL
  LYMPHOCYTE: 89%
  MEAN CORPUSCULAR HEMOGLOBIN: 24.6 pg
  MEAN CORPUSCULAR HEMOGLOBIN CONCENTRATION: 38.27 G/DL
  MONOCYTE: 0.33%
  NEUTROPHIL: 10.67%
  NUCLEATED RED BLOOD CELLS: 0 /100WBC
  PLATELET COUNT: 1191.67 x10E3/uL
[6]
  ALANINE AMINOTRANSFERASE: 51 u/L
  ALBUMIN: 4.1 G/DL
  ALKALINE PHOSPHATASE: 345.67 u/L
  ASPARTATE AMINOTRANSFERASE: 90.67 u/L
  BLOOD UREA NITROGEN: 12.67 mg/dL
  CARBON DIOXIDE: 22 mmol/L
  CHLORIDE: 108.67 MEQ/L
  CHOLESTEROL: 71.67 mg/dL
  CREATINE PHOSPHOKINASE: 295.67 u/L
  CREATININE: 0.21 mg/dL
  LACTATE DEHYDROGENASE: 309 u/L
  LIPASE: 11 u/L
  PHOSPHORUS: 11.73 mg/dL
  POTASSIUM: 6.03 MEQ/L
  TOTAL BILIRUBIN: 0.2 mg/dL
  TOTAL PROTEIN: 5.73 G/DL
  URIC ACID: 1.3 mg/dL
[7]
  ABSOLUTE BASOPHIL: 0 CELLS/uL
  ABSOLUTE EOSINOPHIL: 0 CELLS/uL
  ABSOLUTE LYMPHOCYTE: 10049 CELLS/uL
  ABSOLUTE MONOCYTE: 38 CELLS/uL
  ABSOLUTE SEGMENTED NEUTROPHIL: 579.67 CELLS/uL
  BASOPHIL: 0%
  EOSINOPHIL: 0%
  ERYTHROCYTE COUNT: 5.74 x10E6/uL
  HEMATOCRIT: 36.57%
  LEUKOCYTE COUNT: 10.67 x10E3/uL
  LYMPHOCYTE: 94.33%
  MEAN CORPUSCULAR HEMOGLOBIN: 23.4 pg
  MEAN CORPUSCULAR HEMOGLOBIN CONCENTRATION: 36.67 G/DL
  MONOCYTE: 0.33%
  NEUTROPHIL: 5.33%
  NUCLEATED RED BLOOD CELLS: 0.33 /100WBC
  PLATELET COUNT: 1343.67 x10E3/uL
[8]
  ALANINE AMINOTRANSFERASE: 63.33 u/L
  ALKALINE PHOSPHATASE: 318 u/L
  ASPARTATE AMINOTRANSFERASE: 80 u/L
  CARBON DIOXIDE: 24 mmol/L
  CHOLESTEROL: 69.33 mg/dL
  CREATINE PHOSPHOKINASE: 250 u/L
  CREATININE: 0.18 mg/dL
  GLUCOSE: 176.33 mg/dL
  LACTATE DEHYDROGENASE: 93.33 u/L
  POTASSIUM: 6.41 MEQ/L
  SODIUM: 147.03 MEQ/L
  TOTAL BILIRUBIN: 0.27 mg/dL
  TOTAL PROTEIN: 6.2 G/DL
  URIC ACID: 2.1 mg/dL
